Measurements from the NIST ThermoML archive (doi:10.1021/je500116z).
Numbers after ± are expanded uncertainties.

Details: Liquid, Ebulliometric method (Recirculating still)

Compound	vapor or sublimation pressure (288.15 K)	vapor or sublimation pressure (298.15 K)	vapor or sublimation pressure (308.15 K)
CCC(C)Cl (configuration not stated) [2-chlorobutane]	13.36 ± 0.099 kPa	20.91 ± 0.13 kPa	31.55 ± 0.18 kPa
CCCCCC [hexane]	12.89 ± 0.097 kPa	20.22 ± 0.13 kPa	30.7 ± 0.17 kPa
CC(C)(C)Cl [2-chloro-2-methylpropane]	26.42 ± 0.16 kPa	40.13 ± 0.22 kPa	59.52 ± 0.3 kPa
CC(C)CCl [1-chloro-2-methylpropane]	13 ± 0.097 kPa	20.35 ± 0.13 kPa	30.45 ± 0.17 kPa
